Measured values: PubChem BioAssay AID248 (DTP/NCI, 2004)
Where “and” joins values, the source holds several entries; their conditions need not be identical. Equal values may be shown once. Inconclusive results and toxic doses are left out.

Test system: L1210 leukemia ip in BDF1 mice, survival T/C
Assay: NCI In Vivo Anticancer Drug Screen. Data for tumor model L1210 Leukemia (intraperitoneal) in B6D2F1 (BDF1) mice
Settings: endpoint: mean survival time, higher = longer survival
In short: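 Tumor cells were implanted, animals were treated, and survival was followed. The result divides the treated measurement by the vehicle-control measurement.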

[1] = dose: 25.0 mg/kg/injection, schedule: Q04DX002 (ip), vehicle: saline
[2] = dose: 50.0 mg/kg/injection, schedule: Q04DX002 (ip), vehicle: saline
[3] = dose: 100.0 mg/kg/injection, schedule: Q04DX002 (ip), vehicle: saline
[4] = dose: 100.0 mg/kg/injection, schedule: Q01DX009 (ip), vehicle: Klucel (hydroxypropylcellulose) (HPC)
[5] = dose: 100.0 mg/kg/injection, schedule: Q04DX003 (ip), vehicle: Klucel (hydroxypropylcellulose) (HPC)
[6] = dose: 200.0 mg/kg/injection, schedule: Q01DX009 (ip), vehicle: Klucel (hydroxypropylcellulose) (HPC)
[7] = dose: 200.0 mg/kg/injection, schedule: Q04DX003 (ip), vehicle: Klucel (hydroxypropylcellulose) (HPC)
[8] = dose: 400.0 mg/kg/injection, schedule: Q01DX009 (ip), vehicle: Klucel (hydroxypropylcellulose) (HPC)
[9] = dose: 400.0 mg/kg/injection, schedule: Q04DX003 (ip), vehicle: Klucel (hydroxypropylcellulose) (HPC)
[10] = dose: 100.0 mg/kg/injection, schedule: Q01DX009 (ip), vehicle: saline with Tween-80
[11] = dose: 200.0 mg/kg/injection, schedule: Q01DX009 (ip), vehicle: saline with Tween-80
[12] = dose: 400.0 mg/kg/injection, schedule: Q01DX009 (ip), vehicle: saline with Tween-80
[13] = dose: 50.0 mg/kg/injection, schedule: Q01DX001 (ip), vehicle: saline
[14] = dose: 100.0 mg/kg/injection, schedule: Q01DX001 (ip), vehicle: saline
[15] = dose: 200.0 mg/kg/injection, schedule: Q01DX001 (ip), vehicle: saline
[16] = dose: 400.0 mg/kg/injection, schedule: Q01DX001 (ip), vehicle: saline

`CCOC(=O)c1oc(C)nc1C` was tested, and the T/C (dose: 100.0 mg/kg/injection, schedule: Q01DX001 (ip), vehicle: Klucel (hydroxypropylcellulose) (HPC)) was 122 % of control, the T/C (dose: 200.0 mg/kg/injection, schedule: Q01DX001 (ip), vehicle: Klucel (hydroxypropylcellulose) (HPC)) was 97 % of control and the T/C (dose: 400.0 mg/kg/injection, schedule: Q01DX001 (ip), vehicle: Klucel (hydroxypropylcellulose) (HPC)) was 101 % of control.
In the case of `COc1ccc(CCN)cc1`, the T/C [1] is reported as 101 % of control, the T/C [2] is reported as 97 % of control and the T/C [3] is reported as 97 % of control and 109 % of control.
`COC(=O)c1cc(C)cc(O)c1C` was tested, and the T/C (dose: 100.0 mg/kg/injection, schedule: Q01DX001 (ip), vehicle: carboxymethylcellulose (CMC)) was 104 % of control, the T/C (dose: 200.0 mg/kg/injection, schedule: Q01DX001 (ip), vehicle: carboxymethylcellulose (CMC)) was 98 % of control and the T/C (dose: 400.0 mg/kg/injection, schedule: Q01DX001 (ip), vehicle: carboxymethylcellulose (CMC)) was 104 % of control.
For `COc1ccc(NC(=O)Nc2cc(C)ccc2C)cc1`, the T/C [4] was 89 % of control, the T/C [5] was 93 % of control and the T/C [6] was 86 % of control. The T/C [7] was 93 % of control, the T/C [8] was 92 % of control and the T/C [9] was 87 % of control.
In the case of `OCCC1CC1=C1CC1` (stereo unspecified), the T/C (dose: 50.0 mg/kg/injection, schedule: Q01DX009 (ip), vehicle: Klucel (hydroxypropylcellulose) (HPC)) is reported as 101 % of control and the T/C [4] is reported as 98 % of control.
In the case of `COc1ccc(C(=O)NC(=S)Nc2ccc(I)cc2)cc1`, the T/C [4] is reported as 98 % of control, the T/C [5] is reported as 89 % of control and the T/C [6] is reported as 98 % of control. The T/C [7] was 89 % of control, the T/C [8] was 91 % of control and the T/C [9] was 94 % of control.
With `CC1(C)OC2C(C(N)=O)OC(n3cnc4c(N)ncnc43)C2O1` (stereo unspecified) the T/C (dose: 100.0 mg/kg/injection, schedule: Q01DX005 (ip), vehicle: saline) was 104 % of control and the T/C (dose: 200.0 mg/kg/injection, schedule: Q01DX005 (ip), vehicle: saline) was 102 % of control.
In the case of `Cc1c(C)c(C(=O)O)c(C)c(C)c1C(=O)O`, the T/C [10] is reported as 96 % of control, the T/C [11] is reported as 97 % of control and the T/C [12] is reported as 102 % of control.
`O=[N+]([O-])c1cccc(S/N=C/c2ccccc2)c1` was tested, and the T/C [5] was 100 % of control, the T/C [7] was 95 % of control and the T/C [9] was 105 % of control.
For `O=C(Nc1ccccc1[N+](=O)[O-])OCc1ccc([N+](=O)[O-])cc1`, the T/C (dose: 100.0 mg/kg/injection, schedule: Q04DX003 (ip), vehicle: saline with Tween-80) was 92 % of control, the T/C (dose: 200.0 mg/kg/injection, schedule: Q04DX003 (ip), vehicle: saline with Tween-80) was 105 % of control and the T/C (dose: 400.0 mg/kg/injection, schedule: Q04DX003 (ip), vehicle: saline with Tween-80) was 105 % of control.
`Cc1ncc(C(N)=O)c2c1OC(C)(C)OC2` was tested, and the T/C [13] was 100 % of control, the T/C [14] was 97 % of control and the T/C [15] was 94 % of control. The T/C [16] was 88 % of control.
In the case of `CCN(CC)CCCC(C)Nc1cccc2c1C(=O)c1c(c(O)c3ccccc3c1O)C2=O` (stereo unspecified), the T/C [1] is reported as 93 % of control, the T/C [2] is reported as 93 % of control and the T/C [3] is reported as 93 % of control.
In the case of `C=CCOc1ccc2c(C)cc(=O)oc2c1C`, the T/C (dose: 100.0 mg/kg/injection, schedule: Q01DX008 (ip), vehicle: Klucel (hydroxypropylcellulose) (HPC)) is reported as 93 % of control, the T/C [4] is reported as 94 % of control and the T/C [5] is reported as 96 % of control. For the same compound, the T/C (dose: 200.0 mg/kg/injection, schedule: Q01DX008 (ip), vehicle: Klucel (hydroxypropylcellulose) (HPC)) was 88 % of control, the T/C [6] was 96 % of control and the T/C [7] was 96 % of control. The T/C (dose: 400.0 mg/kg/injection, schedule: Q01DX008 (ip), vehicle: Klucel (hydroxypropylcellulose) (HPC)) was 86 % of control, the T/C [8] was 97 % of control and the T/C [9] was 96 % of control.
For `N=C(c1ccccc1)C1SCCCS1`, the T/C [5] was 103 % of control, the T/C [7] was 97 % of control and the T/C [9] was 97 % of control.
With `O=C1CC2CCCC1C2` (stereo unspecified) the T/C [14] was 98 % of control, the T/C [15] was 109 % of control and the T/C [16] was 112 % of control.
In the case of `CCCCS/C=C1\CCC2(C)CCCCC2C1=O` (stereo unspecified), the T/C (dose: 100.0 mg/kg/injection, schedule: Q04DX002 (ip), vehicle: saline with Tween-80) is reported as 100 % of control, the T/C (dose: 200.0 mg/kg/injection, schedule: Q04DX002 (ip), vehicle: saline with Tween-80) is reported as 100 % of control and the T/C (dose: 400.0 mg/kg/injection, schedule: Q04DX002 (ip), vehicle: saline with Tween-80) is reported as 120 % of control.
For `CC(=O)CC(=O)Nc1ccc2ccccc2c1`, the T/C [4] was 98 % of control, the T/C [5] was 92 % of control and the T/C [7] was 97 % of control. The T/C [9] was 92 % of control.
With `O=NN(CCCl)C(=O)NC1CSCSC1` the T/C (dose: 7.0 mg/kg/injection, schedule: Q01DX001 (ip), vehicle: other) was 284 % of control, the T/C (dose: 10.0 mg/kg/injection, schedule: Q01DX001 (ip), vehicle: other) was 322 % of control and the T/C (dose: 15.0 mg/kg/injection, schedule: Q01DX001 (ip), vehicle: other) was 333 % of control. The T/C (dose: 25.0 mg/kg/injection, schedule: Q01DX001 (ip), vehicle: other) was 168 % of control, the T/C (dose: 30.0 mg/kg/injection, schedule: Q01DX001 (ip), vehicle: other) was 277 % of control and the T/C (dose: 45.0 mg/kg/injection, schedule: Q01DX001 (ip), vehicle: other) was 107 % of control.
In the case of `CS(=O)(=O)OCCN(CCOS(C)(=O)=O)c1cccc(F)c1`, the T/C (dose: 5.0 mg/kg/injection, schedule: Q01DX001 (ip), vehicle: saline) is reported as 98 % of control and 113 % of control, the T/C (dose: 9.0 mg/kg/injection, schedule: Q01DX001 (ip), vehicle: saline) is reported as 98 % of control and the T/C (dose: 10.0 mg/kg/injection, schedule: Q01DX001 (ip), vehicle: saline) is reported as 100 % of control. For the same compound, the T/C (dose: 13.0 mg/kg/injection, schedule: Q01DX001 (ip), vehicle: saline) was 96 % of control, the T/C (dose: 30.0 mg/kg/injection, schedule: Q01DX001 (ip), vehicle: saline) was 97 % of control and the T/C (dose: 40.0 mg/kg/injection, schedule: Q01DX001 (ip), vehicle: saline) was 100 % of control. For the same compound, the T/C [13] was 103 % of control, the T/C (dose: 80.0 mg/kg/injection, schedule: Q01DX001 (ip), vehicle: saline) was 98 % of control and 87 % of control and the T/C [14] was 105 % of control. The T/C [15] was 121 % of control.
In the case of `COc1ccc(CCCCCl)cc1`, the T/C (dose: 100.0 mg/kg/injection, schedule: Q01DX001 (ip), vehicle: acetone) is reported as 95 % of control, the T/C (dose: 200.0 mg/kg/injection, schedule: Q01DX001 (ip), vehicle: acetone) is reported as 95 % of control and the T/C (dose: 400.0 mg/kg/injection, schedule: Q01DX001 (ip), vehicle: acetone) is reported as 96 % of control.
For `Clc1cc(CBr)c(Cl)c(Cl)c1CBr`, the T/C (dose: 6.25 mg/kg/injection, schedule: Q01DX009 (ip), vehicle: saline sonified) was 94 % of control, the T/C (dose: 6.25 mg/kg/injection, schedule: Q04DX003 (ip), vehicle: Klucel (hydroxypropylcellulose) (HPC)) was 97 % of control and the T/C (dose: 12.5 mg/kg/injection, schedule: Q01DX009 (ip), vehicle: saline sonified) was 94 % of control. For the same compound, the T/C (dose: 12.5 mg/kg/injection, schedule: Q04DX003 (ip), vehicle: Klucel (hydroxypropylcellulose) (HPC)) was 91 % of control, the T/C (dose: 25.0 mg/kg/injection, schedule: Q01DX009 (ip), vehicle: saline sonified) was 91 % of control and the T/C (dose: 25.0 mg/kg/injection, schedule: Q04DX003 (ip), vehicle: Klucel (hydroxypropylcellulose) (HPC)) was 98 % of control.
In the case of `CN(C)C/C(=C\c1ccccc1)C(=O)c1ccccc1`, the T/C (dose: 100.0 mg/kg/injection, schedule: Q04DX003 (ip), vehicle: other) is reported as 98 % of control.
With `O=c1ccc([N+](=O)[O-])cn1Cc1ccccc1` the T/C (dose: 100.0 mg/kg/injection, schedule: Q01DX001 (ip), vehicle: saline with Tween-80) was 114 % of control, the T/C [10] was 106 % of control and the T/C (dose: 200.0 mg/kg/injection, schedule: Q01DX001 (ip), vehicle: saline with Tween-80) was 100 % of control. The T/C [11] was 98 % of control, the T/C (dose: 400.0 mg/kg/injection, schedule: Q01DX001 (ip), vehicle: saline with Tween-80) was 96 % of control and the T/C [12] was 106 % of control.
`C=C(C)C1CCC(C)CC1O` (stereo unspecified) was tested, and the T/C (dose: 50.0 mg/kg/injection, schedule: Q01DX009 (ip), vehicle: saline with Tween-80) was 111 % of control, the T/C [10] was 97 % of control and the T/C [11] was 108 % of control.
With `COC(=O)c1ccccc1NC(=O)C(Cl)Cl` the T/C (dose: 100.0 mg/kg/injection, schedule: Q01DX009 (ip), vehicle: other) was 106 % of control, the T/C (dose: 200.0 mg/kg/injection, schedule: Q01DX009 (ip), vehicle: other) was 93 % of control and the T/C (dose: 400.0 mg/kg/injection, schedule: Q01DX009 (ip), vehicle: other) was 98 % of control.
